One sequence from article PMC3660367, “MARCKS Protein Is Phosphorylated and Regulates Calcium Mobilization during Human Acrosomal Exocytosis” (PLoS ONE, 2013) can be followed below.

No end group written: not given here.

The test system of data set [1] is acrosomal exocytosis in non-permeabilized human sperm. The experiment in a line: Acrosomal exocytosis assay in non-permeabilized (living) human sperm. It counts as cell-based. On the procedure:
Acrosomal exocytosis assays were performed as previously described. Briefly, human semen obtained from normal healthy donors was allowed to liquefy for 30-60 min at 37°C. We used a swim-up protocol to isolate highly motile sperm under capacitating conditions in Human Tubal Fluid media (HTF, as formulated by Irvine Scientific, Santa Ana, CA) supplemented with 0.5% bovine serum albumin (BSA) for 1 h at 37°C in an atmosphere of 5% CO2/95% air. Sperm concentrations were adjusted to 5–10×10^6 cells/ml and incubated for at least 2 h under capacitating conditions. We have shown previously that human sperm incubated under these conditions are responsive to progesterone. […] Acrosomal status was evaluated by staining with FITC-coupled Pisum sativum agglutinin (FITC-PSA) according to [21]. At least 200 cells were scored using a Nikon Optiphot II microscope equipped with epifluorescence optics. […] For each experiment, acrosomal exocytosis indexes were calculated by subtracting the number of reacted spermatozoa in the negative control (range 10%–30%) from all values, and expressing the resulting values as a percentage of the acrosome exocytosis observed in the positive control (range 25%–40%). […] Data were evaluated using one-way ANOVA and post hoc tests (Dunnett's test or confident intervals). […]

Data set [2] deals with living human sperm. The experiment in a line: Permeation of ED-TMR into non-permeabilized human sperm (fluorescence microscopy, trypsin treatment before fixation). Particulars: 4 µM ED-TMR 30 min 37°C, then 0.5 µg/ml trypsin 30 min 37°C before fixation. It counts as cell-based. An excerpt: So far all results were obtained using the SLO-permeabilized human sperm model. […] Fortunately, MARCKS ED meets this requirement and it can be assayed in acrosomal exocytosis in non-permeabilized sperm. To investigate the function of MARCKS in intact cells, we analyzed the effect of a permeable peptide corresponding to wt MARCKS ED in living human sperm. We used a commercial MARCKS peptide, the tetramethylrhodamine-conjugated peptide sequence KKRFSFKKSFKL (ED-TMR) derived from amino acid residues 154 –165 of human MARCKS ED, which retains the first two of the four serine residues in the ED (see peptide scheme in Fig. 3A). First, we determined the permeability of ED-TMR in living human sperm (see Fig. S3). To rule out that the translocation of the protein was a fixation artifact, cells were treated with trypsin before fixation. […] A similar permeable MARCKS peptide has been used in sea urchin sperm and it was found enriched in the acrosome region.
Supplementary file pone.0064551.s003.tif: Figure S3 MARCKS peptide permeates into non-permeabilized sperm. (A) Non-permeabilized sperm were treated for 30 minutes at 37°C with 4 µM permeable MARCKS ED domain (ED-TMR) and then incubated with (+) or without (-) 0.5 µg/ml trypsin for 30 minutes at 37°C. […] (B) Quantification of tetramethylrhodamine-labeled acrosome sperm. At least 300 cells were scored. […]

As for “KKRFSFKKSFKL (also: tetramethylrhodamine conjugate, site not given here) [ED-TMR, commercial (Anaspec) tetramethylrhodamine-conjugated peptide … from residues 154–165 of human MARCKS ED]”, in data set [1] (non-permeabilized capacitated sperm, peptide 30 min 37°C, then 10 µM A23187, 200 nM PMA or 15 µM progesterone 15 min), the “effect on acrosomal exocytosis stimulated by A23187, PMA and progesterone” value is “inhibited the secretion”. For the same sequence, in data set [1] (non-permeabilized sperm, high concentrations), the “acrosomal exocytosis index at high concentrations versus unstimulated controls (basal exocytosis)” value is recorded as “significantly lower than the index in unstimulated controls”. In data set [2], the “permeability of ED-TMR in living human sperm (localisation)” value was “detected mainly in the head of human sperm”.
